Measurements published in the NIST ThermoML archive (doi:10.1021/je800188a).
Numbers after ± are expanded uncertainties.

Assay: mean ionic activity coefficient (dimensionless); mn = molality of the nth substance listed, in mol/kg
Details: 298.15 K, 101 kPa, Liquid

[Cl-].[K+] [potassium chloride] + O
Details	mean ionic activity coefficient
m1 = 0.2	0.719 ± 0.05
m1 = 0.4	0.669 ± 0.05
m1 = 0.6	0.641 ± 0.05
m1 = 0.8	0.623 ± 0.05
m1 = 1	0.61 ± 0.05
m1 = 1.2	0.601 ± 0.05
m1 = 1.4	0.593 ± 0.05
m1 = 1.6	0.588 ± 0.05
m1 = 1.8	0.584 ± 0.05
m1 = 2	0.58 ± 0.05
m1 = 2.2	0.578 ± 0.05
m1 = 2.4	0.576 ± 0.05
m1 = 2.6	0.575 ± 0.05
m1 = 2.8	0.575 ± 0.05
m1 = 3	0.575 ± 0.05
m1 = 3.2	0.576 ± 0.05
m1 = 3.4	0.576 ± 0.05
m1 = 3.6	0.578 ± 0.05
m1 = 3.8	0.58 ± 0.05
m1 = 4	0.582 ± 0.05
m1 = 4.2	0.584 ± 0.05
m1 = 4.4	0.587 ± 0.05
m1 = 4.6	0.59 ± 0.05
m1 = 4.8	0.593 ± 0.05
m1 = 4.803	0.593 ± 0.05

[Cl-].[Na+] [sodium chloride] + O
Details	mean ionic activity coefficient
m1 = 0.2	0.734 ± 0.05
m1 = 0.4	0.694 ± 0.05
m1 = 0.6	0.676 ± 0.05
m1 = 0.8	0.666 ± 0.05
m1 = 1	0.662 ± 0.05
m1 = 1.2	0.66 ± 0.05
m1 = 1.4	0.662 ± 0.05
m1 = 1.6	0.665 ± 0.05
m1 = 1.8	0.669 ± 0.05
m1 = 2	0.675 ± 0.05
m1 = 2.2	0.682 ± 0.05
m1 = 2.4	0.69 ± 0.05
m1 = 2.6	0.699 ± 0.05
m1 = 2.8	0.709 ± 0.05
m1 = 3	0.72 ± 0.05
m1 = 3.2	0.732 ± 0.05
m1 = 3.4	0.744 ± 0.05
m1 = 3.6	0.758 ± 0.05
m1 = 3.8	0.772 ± 0.05
m1 = 4	0.787 ± 0.05
m1 = 4.2	0.803 ± 0.05
m1 = 4.4	0.82 ± 0.05
m1 = 4.6	0.838 ± 0.05
m1 = 4.8	0.857 ± 0.05
m1 = 5	0.877 ± 0.05
m1 = 5.2	0.898 ± 0.05
m1 = 5.4	0.92 ± 0.05
m1 = 5.6	0.943 ± 0.05
m1 = 5.8	0.968 ± 0.05
m1 = 6	0.993 ± 0.05
m1 = 6.144	1.01 ± 0.051
